# Test results taken from ChEMBL document CHEMBL1151438, “In vitro resistance study of rupintrivir, a novel inhibitor of human rhinovirus 3C protease” (Antimicrob Agents Chemother, 2007).
# Tests used:
# [1] = system: rhinovirus B14; experiment: Antiviral activity against 0.02 MOI HRV14 infected in human H1-HeLa cells assessed as cell killing after 5 passages for 22 days by XTT assay; assay type: functional
# [2] = system: rhinovirus B14; experiment: Ratio of EC50 for HRV14 infected in human H1-HeLa cells after 8 passages for 40 days to EC50 for wild type HRV14 infected in human H1-HeLa cells; assay type: functional
# [3] = system: rhinovirus B14; experiment: Ratio of EC50 for HRV14 infected in human H1-HeLa cells after 9 passages for 48 days to EC50 for wild type HRV14 infected in human H1-HeLa cells; assay type: functional
# [4] = system: rhinovirus B14; experiment: Ratio of EC50 for HRV14 infected in human H1-HeLa cells after 10 passages for 55 days to EC50 for wild type HRV14 infected in human H1-HeLa cells; assay type: functional
# [5] = system: rhinovirus B14; experiment: Ratio of EC50 for HRV14 infected in human H1-HeLa cells after 11 passages for 65 days to EC50 for wild type HRV14 infected in human H1-HeLa cells; assay type: functional
# [6] = system: rhinovirus A2; experiment: Antiviral activity against HRV2 with 3C protease E3E/G, A103A/V, N165T mutation infected in human H1-HeLa cells assessed as virus-induced cytopathic effect after 9 passages for 62 days by XTT assay; assay type: functional, organism-based; settings: Rhinovirus A
# [7] = system: rhinovirus A39; experiment: Ratio of EC50 for HRV39 infected in human H1-HeLa cells after 2 passages for 12 days to EC50 for wild type HRV39 infected in human H1-HeLa cells; assay type: functional
# [8] = system: rhinovirus A39; experiment: Ratio of EC50 for HRV39 infected in human H1-HeLa cells after 6 passages for 33 days to EC50 for wild type HRV39 infected in human H1-HeLa cells; assay type: functional
# [9] = system: rhinovirus B14; experiment: Ratio of EC50 for HRV14 infected in human H1-HeLa cells after 12 passages for 72 days to EC50 for wild type HRV14 infected in human H1-HeLa cells; assay type: functional
# [10] = system: rhinovirus B14; experiment: Antiviral activity against wild type HRV14 infected in human H1-HeLa cells assessed as virus-induced cytopathic effect after 3 days by XTT assay; assay type: functional, organism-based; settings: Rhinovirus B, 72 h
# [11] = system: rhinovirus B14; experiment: Antiviral activity against HRV14 with 3C protease T129T/A, T131T/A, T143P/S mutation infected in human H1-HeLa cells assessed as virus-induced cytopathic effect after 3 passages for 14 days by XTT assay; assay type: functional, organism-based; settings: Rhinovirus B, 336 h
# [12] = system: rhinovirus B14; experiment: Antiviral activity against HRV14 with 3C protease T129A, T131T/A, T143P mutation infected in human H1-HeLa cells assessed as virus-induced cytopathic effect after 5 passages for 22 days by XTT assay; assay type: functional, organism-based; settings: Rhinovirus B, 528 h
# [13] = system: rhinovirus B14; experiment: Antiviral activity against HRV14 with 3C protease T129A, T131A, T143P, Y139Y/H mutation infected in human H1-HeLa cells assessed as virus-induced cytopathic effect after 10 passages for 55 days by XTT assay; assay type: functional, organism-based; settings: Rhinovirus B
# [14] = system: rhinovirus B14; experiment: Ratio of EC50 for HRV14 with 3C protease T129T/A, T131T/A, T143P/S mutation infected in human H1-HeLa cells after 3 passages for 14 days to EC50 for wild type HRV14 infected in human H1-HeLa cells; assay type: functional
# [15] = system: rhinovirus A39; experiment: Ratio of EC50 for HRV39 with 3C protease S105S/T, N130K, L136F mutation infected in human H1-HeLa cells after 9 passages for 50 days to EC50 for wild type HRV39 infected in human H1-HeLa cells; assay type: functional
# [16] = system: Human rhinovirus sp.; experiment: Ratio of EC50 for HRV Hanks infected in human H1-HeLa cells after 2 passage for 17 days to EC50 for wild type HRV Hanks infected in human H1-HeLa cells; assay type: functional
# [17] = system: Human rhinovirus sp.; experiment: Ratio of EC50 for HRV Hanks infected in human H1-HeLa cells after 3 passage for 35 days to EC50 for wild type HRV Hanks infected in human H1-HeLa cells; assay type: functional
# [18] = system: Human rhinovirus sp.; experiment: Ratio of EC50 for HRV Hanks infected in human H1-HeLa cells after 6 passage for 40 days to EC50 for wild type HRV Hanks infected in human H1-HeLa cells; assay type: functional
# [19] = system: Human rhinovirus sp.; experiment: Ratio of EC50 for HRV Hanks infected in human H1-HeLa cells after 9 passage for 59 days to EC50 for wild type HRV Hanks infected in human H1-HeLa cells; assay type: functional
# [20] = system: Human rhinovirus sp.; experiment: Antiviral activity against HRV Hanks with 3C protease T130A mutation infected in human H1-HeLa cells assessed as virus-induced cytopathic effect after 6 passages for 40 days by plaque reduction assay; assay type: functional, organism-based
# [21] = system: rhinovirus B14; experiment: Antiviral activity against 0.02 MOI wild type HRV14 infected in human H1-HeLa cells assessed as cell killing after 3 days by XTT assay; assay type: functional
# [22] = system: rhinovirus B14; experiment: Ratio of EC50 for HRV14 with 3C protease T129A, T131T/A, T143P mutation infected in human H1-HeLa cells after 4 passages for 17 days to EC50 for wild type HRV14 infected in human H1-HeLa cells; assay type: functional
# [23] = system: rhinovirus B14; experiment: Ratio of EC50 for HRV14 with 3C protease with T129A, T131A, T143P, Y139Y/H mutation infected in human H1-HeLa cells after 10 passages for 55 days to EC50 for wild type HRV14 infected in human H1-HeLa cells; assay type: functional
# [24] = system: rhinovirus B14; experiment: Antiviral activity against HRV14 with 3C protease T129A mutation infected in human H1-HeLa cells assessed as virus-induced cytopathic effect after 3 days by XTT assay; assay type: functional, organism-based; settings: Rhinovirus B, 72 h
# [25] = system: rhinovirus B14; experiment: Antiviral activity against HRV14 with 3C protease Y139H mutation infected in human H1-HeLa cells assessed as virus-induced cytopathic effect after 3 days by XTT assay; assay type: functional, organism-based; settings: Rhinovirus B, 72 h
# [26] = system: rhinovirus B14; experiment: Ratio of EC50 for HRV14 with 3C protease T129A mutation infected in human H1-HeLa cells to EC50 for wild type HRV14 infected in human H1-HeLa cells; assay type: functional
# [27] = system: rhinovirus A2; experiment: Ratio of EC50 for HRV2 infected in human H1-HeLa cells after 1 passage for 6 days to EC50 for wild type HRV2 infected in human H1-HeLa cells; assay type: functional
# [28] = system: rhinovirus A2; experiment: Ratio of EC50 for HRV2 infected in human H1-HeLa cells after 2 passages for 10 days to EC50 for wild type HRV2 infected in human H1-HeLa cells; assay type: functional
# [29] = system: rhinovirus A2; experiment: Ratio of EC50 for HRV2 infected in human H1-HeLa cells after 4 passages for 24 days to EC50 for wild type HRV2 infected in human H1-HeLa cells; assay type: functional
# [30] = system: rhinovirus A2; experiment: Ratio of EC50 for HRV2 infected in human H1-HeLa cells after 7 passages for 45 days to EC50 for wild type HRV2 infected in human H1-HeLa cells; assay type: functional
# [31] = system: rhinovirus A2; experiment: Antiviral activity against wild type HRV2 infected in human H1-HeLa cells assessed as virus-induced cytopathic effect after 3 days by XTT assay; assay type: functional, organism-based; settings: Rhinovirus A, 72 h
# [32] = system: rhinovirus A2; experiment: Antiviral activity against HRV2 with 3C protease N165T mutation infected in human H1-HeLa cells assessed as virus-induced cytopathic effect after 5 passages for 30 days by XTT assay; assay type: functional, organism-based; settings: Rhinovirus A
# [33] = system: rhinovirus B14; experiment: Ratio of EC50 for HRV14 infected in human H1-HeLa cells after 2 passages for 11 days to EC50 for wild type HRV14 infected in human H1-HeLa cells; assay type: functional
smiles,measurement,setting,value
CCOC(=O)/C=C/[C@H](C[C@@H]1CCNC1=O)NC(=O)[C@@H](CC(=O)[C@@H](NC(=O)c1cc(C)on1)C(C)C)Cc1ccc(F)cc1 [RUPINTRIVIR],Activity,[1],88.2%
same,Ratio EC50,[2],40
same,Ratio EC50,[3],60
same,Ratio EC50,[4],90
same,Ratio EC50,[5],90
same,EC50,[6],140 nM
same,Ratio EC50,[7],4
same,Ratio EC50,[8],6
same,Ratio EC50,[9],90
same,EC50,[10],21 nM
same,EC50,[11],152 nM
same,EC50,[12],96 nM
same,EC50,[13],324 nM
same,Ratio EC50,[14],7
same,Ratio EC50,[15],4
same,Ratio EC50,[16],2
same,Ratio EC50,[17],2
same,Ratio EC50,[18],3
same,Ratio EC50,[19],3
same,EC50,[20],51 nM
same,Activity,[21],90.2%
same,Ratio EC50,[22],11
same,Ratio EC50,[23],15
same,EC50,[24],14 nM
same,EC50,[25],14 nM
same,Ratio EC50,[26],1
same,Ratio EC50,[27],1
same,Ratio EC50,[28],1
same,Ratio EC50,[29],5
same,Ratio EC50,[30],5
same,EC50,[31],30 nM
same,EC50,[32],57 nM
same,Ratio EC50,[33],3.5
